{
  "source": "paper PMC6196658",
  "about": "“Activity of Thioallyl Compounds From Garlic Against Giardia duodenalis Trophozoites and in Experimental Giardiasis” (Frontiers in Cellular and Infection Microbiology, 2018)",
  "key": {"Entamoeba histolytica": {"test_system": "Entamoeba histolytica", "parameters": "method as in Ankri et al., 1997", "details": "ref Ankri et al., 1997; cited from earlier work"}, "giardipain-1": {"biological_target": "T1, giardipain-1 (Giardia intestinalis, UniProt P92132)", "T1 construct": "the 25 kDa band that contains the processed form of the cathepsin B-like protease named as giardipain-1; endogenous in cells", "T1 sequence (P92132 75-300)": "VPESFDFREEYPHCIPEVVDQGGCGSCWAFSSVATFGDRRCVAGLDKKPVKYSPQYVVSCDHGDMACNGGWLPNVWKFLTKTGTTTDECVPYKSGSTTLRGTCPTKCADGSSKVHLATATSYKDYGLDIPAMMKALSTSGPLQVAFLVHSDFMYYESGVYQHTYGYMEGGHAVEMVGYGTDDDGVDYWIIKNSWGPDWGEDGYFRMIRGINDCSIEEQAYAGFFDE", "test": "Inhibition of cytolytic effect of giardipain-1 on IEC6 cell monolayers", "format": "cell-based, Giardia duodenalis", "details": "5.3 mM pre-incubated 30 min with giardipain-1 16 μg/mL; 100 min", "procedure": "Additional assays were carried out using the MLCs of TACs (without giardipain-1) previously obtained in trophozoite cultures to monitor their toxicity. These solutions were added to monolayers of the intestinal cell line IEC6 grown in 1 cm^2-microwells and incubated for 100 min at 37°C. After incubation, supernatants were discarded and monolayers were fixed with 2% paraformaldehyde in PBS. The effects of TACs and E64 on the cytolytic effect of giardipain-1 were evaluated by light microscopy using Nomarski optics (Axioskop 40, Zeiss)."}, "[1]": {"test": "Storage stability of allicin", "details": "1.5% (w/v) in water, 1 mL aliquots at −70°C", "description": "For stabilization and storage of ALC, the oily product was resuspended in water at 1.5% (w/v) and kept in 1 mL aliquots at −70°C until analyzed and used."}, "Spironucleus vortens": {"test_system": "Spironucleus vortens", "parameters": "method as in Millet et al., 2011", "details": "ref Millet et al., 2011; cited from earlier work"}, "Babesia microti": {"test_system": "Babesia microti", "parameters": "method as in Salama et al., 2014", "details": "mice, 30 mg/kg orally for 5 days; ref Salama et al., 2014; cited from earlier work"}, "[2]": {"test_system": "thiol groups exposed in G. duodenalis trophozoite proteins", "test": "Thiol-modifying activity (inhibition of thiol-DTNB complexes)", "format": "biochemical, Giardia duodenalis", "details": "100 μg soluble trophozoite protein, 10 min 37°C, DTNB 412 nm", "procedure": "The technique reported by Lawson and Wang ([1993]) was followed. In these assays trophozoites were collected from 60 mL flasks, washed 3 times with PBS and resuspended in 500 μL PBS containing a 1:12.5 dilution of a commercial mixture of protease inhibitors (Complete^TM, Roche Diagnostics GmbH, Indianapolis, IN, USA) and lysed by sonication at 12 microns/60% amplitude (Ultrasonic apparatus Sonic UVX1130PB). Soluble proteins were recovered by centrifugation at 15,400 × g for 30 min at 4°C and protein concentration was determined by the Bradford technique. These samples were adjusted to a concentration of 1 mg/mL. Reactions were carried out in 1.5 mL microcentrifuge tubes with a mixture of 100 μg protein (100 μL) and NaH2PO4 45 mM pH 7.0 mM (800 μL) to which increasing volumes of TACs stocks or a positive control with the thiol derivatizing agent MMTS prepared at 50 mM in the same buffer, were added and total volume was adjusted to 1 mL. After incubation for 10 min at 37°C, 100 μL of 1.5 mM dithionitrobenzoic acid (DTNB, Ellman's reagent) were added to each tube and following incubation for 10 min at room temperature the absorbances (yellow solutions) were recorded at 412 nm (Smart Spec 3000^TM, Bio-Rad, Hercules, CA, USA). A calibration curve was obtained using increasing volumes (0–100 μL) of 15.5 mM cysteine instead protein extracts and the maximal blocking concentration (MBC) corresponding to a complete absence of thiol-DTNB complexes produced by TACs were calculated using the least-square method (Microsoft Excel^TM)."}, "[3]": {"test_system": "G. duodenalis trophozoites", "test": "In vitro susceptibility, direct cell count (DCC)", "format": "cell-based, Giardia duodenalis (WB strain)", "details": "24 h exposure"}, "[4]": {"details": "mouse, no reference given; cited from earlier work"}, "[5]": {"test_system": "G. duodenalis trophozoites", "test": "Annexin V-PI flow cytometry (apoptosis/necrosis)", "format": "cell-based, Giardia duodenalis", "details": "0.6 mM (MLC), 24 h", "procedure": "(§1) The identification and quantitative determinations of trophozoites were carried out as follows: (a) apoptosis or necrosis were determined using anti-annexin V-fluorescein isothiocyanate (FITC) antibodies or PI as respective markers, (b) oxidative stress was determined by formation of reactive oxygen species (ROS) with the fluorescent ROS-complexing agent 5-(and 6)-carboxy 2′7′-dichlorodihydrofluorescein diacetate (H2DCFDA), and (c) determination of trophozoites cell cycle stages (G1, S, G2, and G2/M) after exposure to ALC or to a control drug (albendazole, ABZ) was carried out as previously described (Martínez-Espinosa et al., [2015]). In all these assays 20,000 cells per sample were recorded."}, "Plasmodium berghei": {"test_system": "Plasmodium berghei", "parameters": "method as in Coppi et al., 2006", "details": "mice, ref Coppi et al., 2006, cited from earlier work"}, "[6]": {"test_system": "G. duodenalis trophozoites", "test": "In vitro susceptibility, FDA-PI staining", "format": "cell-based, Giardia duodenalis (WB strain)", "details": "24 h exposure"}, "[7]": {"test_system": "G. duodenalis trophozoites", "test": "Cell cycle stages, PI flow cytometry", "format": "cell-based, Giardia duodenalis", "details": "24 h", "procedure": "as §1"}, "[8]": {"test_system": "G. duodenalis trophozoites", "test": "Efficacy in experimental giardiasis", "details": "for cure rate (gerbils without trophozoites): read day 13", "description": "Eighty male Mongolian gerbils (M. unguiculatus) 6–10 weeks old, weighted 45–60 g and sentinel-checked gerbils free of intestinal parasites were kept in individual cages and distributed in 12 groups of 6 animals per treatment and experimental infections were performed as described elsewhere (Argüello-García and Ortega-Pierres, [1997]). In brief, animals were inoculated intragastrically with 1 × 10^6 G. duodenalis trophozoites in 500 μl sterile PBS per os using gavage under ether anesthesia. Control animals received 500 μl sterile PBS each. […] As additional control, one group of animals received MTZ (38.4 mg/kg at single or double dose). […] Treatment efficacy was evaluated by determining the presence or absence of trophozoites in intestinal contents of control and treated gerbils at day 13 post-infection. For this, gerbils were euthanized by an intraperitoneal injection of pentobarbital at a dose of 150 mg/kg to minimize stress and to reduce suffering, then a 10 cm-long section of intestine (from stomach ending, equivalent to nearly the entire small intestine) was excised after laparotomy, and it was longitudinally opened and rinsed in 20 mL PBS at 4°C for 20 min under shaking (720 rpm, Heidolph^TM rotatory shaker) to determine trophozoites number after parasite detachment from microvilli. Supernatant was collected and centrifuged at 750 × g for 10 min at 4°C, cell pellet was resuspended in 1 mL PBS and trophozoites were counted using a haemocytometer. Gerbils were scored as cured if no trophozoites were recovered from infected animals."}, "[9]": {"test_system": "cysteine protease activities in trophozoite lysates", "test": "Proteolytic activity assay (gelatin zymogram)", "format": "biochemical, Giardia duodenalis", "details": "3.5 mM; bands 110, 60, 75 and 25 kDa", "procedure": "Trophozoite lysates were prepared as mentioned above except that cell lysis was carried out by sonication in 1.5 mL microcentrifuge tubes under ice bath using eight 15-s pulses at 80% amplitude with resting periods of 30 s (Ultrasonic Processor mod. CV19). Protein concentration was adjusted to 2 mg/mL and aliquoted in 25 μL fractions that were incubated for 30 min room temperature with 2–5 μL stock solutions of representative TACs (ALC, DADS, and AM). The reaction mixtures were diluted in Laemmli's sample buffer, loaded in wells of 10% acrylamide-02% gelatin slab gels and these were electrophoretically analyzed using 80 V/4°C. After this, gels were incubated in a solution of triton X-100 2.5% (v/v) in water for 1 h and washed 3 times with distilled water. Bands with proteolytic activity were detected as follows: gels were incubated in acetate buffer pH 5.5 with 1 mM DTT for 16 h at 37°C under constant stirring, washed 3 times with distilled water and stained with Coomassie blue (BioRad) for 2 h at 37°C under constant stirring. Finally, gels were washed with distilled water and incubated with a solution of 5% acetic acid/40% methanol (v/v). Gel images were documented with a UVP High Performance Ultraviolet Transilluminator and software Launch DocItLS."}},
  "note": "Several values for one entry are separate records, joined by “and”; a condition that tells them apart may be missing. Equal values may be shown once. Read-outs that look alike come from different tables or passages of the source.",
  "data": [
    {"compound": "C=CCS[S+]([O-])CC=C", "note": "(centres unmarked) [ALC, diallyl thiosulfinate]", "values": [
      {"measurement": "IC60", "setting": "Entamoeba histolytica", "value": 500, "unit": "µM"},
      {"measurement": "effect on giardipain-1 cytopathic damage in IEC6 monolayers", "setting": "giardipain-1", "value": "noticeably blocked these effects"},
      {"measurement": "time of retained full activity on storage", "setting": "[1]", "value": "up to 6 months"},
      {"measurement": "IC50", "setting": "Spironucleus vortens", "value": "> 1120", "unit": "µM"},
      {"measurement": "parasitemia", "setting": "Babesia microti", "value": "significantly reduced parasitemia"},
      {"measurement": "MBC (maximal blocking concentration) ± SD", "setting": "[2]", "value": "93.8 mmol/mg protein and 93.84 ± 12.8 mmol/mg protein"},
      {"measurement": "MLC (mM) ±SD", "setting": "[3]", "value": 1.08, "unit": "mM"},
      {"measurement": "MLC (mM) ±SD", "setting": "[3]; listed as Allicin", "value": "1.088 ± 0.24", "unit": "mM"},
      {"measurement": "IC50", "setting": "[3]; Giardia duodenalis", "value": "369 ± 21", "unit": "µM"},
      {"measurement": "oral lethality", "setting": "[4]", "value": 300, "unit": "mg/kg"},
      {"measurement": "R4 cells positive for early apoptosis (annexin V+)", "setting": "[5]", "value": 10.2, "unit": "%"},
      {"measurement": "mortality", "setting": "Plasmodium berghei; 4 daily doses of 8 mg/kg intravenously", "value": "markedly reduced mortality"},
      {"measurement": "mortality", "setting": "Plasmodium berghei; 4 daily doses of 9 mg/kg orally", "value": "markedly reduced mortality"},
      {"measurement": "MLC (mM) ±SD", "setting": "[6]", "value": "1.285 ± 0.18", "unit": "mM"},
      {"measurement": "IC50", "setting": "[6]; Giardia duodenalis", "value": "536 ± 103", "unit": "µM"},
      {"measurement": "cells at G1 phase", "setting": "[7]; 0.6 mM", "value": "7.4% and 7.43%"},
      {"measurement": "cells at G2/M phase", "setting": "[7]; 0.6 mM", "value": "4.4% and 4.44%"},
      {"measurement": "cells at G2 phase", "setting": "[7]; 0.6 mM", "value": "61.0% and 61.09%"},
      {"measurement": "cells at S phase", "setting": "[7]; 0.6 mM", "value": 27.03, "unit": "%"},
      {"measurement": "cells at G1 phase", "setting": "[7]; 1.2 mM", "value": "2.2% and 2.22%"},
      {"measurement": "cells at G2/M phase", "setting": "[7]; 1.2 mM", "value": "5.7% and 5.72%"},
      {"measurement": "cells at G2 phase", "setting": "[7]; 1.2 mM", "value": 75.53, "unit": "%"},
      {"measurement": "cells at S phase", "setting": "[7]; 1.2 mM", "value": "5.7% and 5.72%"},
      {"measurement": "cure rate (gerbils without trophozoites)", "setting": "[8]; 35 mg/kg single dose intragastric day 10 p.i.", "value": "3 out of 6"},
      {"measurement": "cure rate (gerbils without trophozoites)", "setting": "[8]; 70 mg/kg single dose intragastric day 10 p.i.", "value": "5 out of 6 and 5/6"},
      {"measurement": "cure rate (gerbils without trophozoites)", "setting": "[8]; 138 mg/kg single dose intragastric day 10 p.i.", "value": "6 out of 6 and 6/6"},
      {"measurement": "cure rate (gerbils without trophozoites)", "setting": "[8]; 276 mg/kg single dose intragastric day 10 p.i.", "value": "5 out of 6"},
      {"measurement": "intestinal parasite numbers", "setting": "[8]; increasing single doses 35-276 mg/kg, day 13 p.i.", "value": "progressive decrease in parasite numbers"},
      {"measurement": "effect on proteolytic bands in zymogram", "setting": "[9]", "value": "strongly inhibited"}
    ]}
  ]
}
